15 compounds from patent publication US11154519B2, “Inhibitors and their uses” (MEDICAL RESEARCH COUNCIL, priority 2015, dated 2021) can be followed below.

Like-named read-outs stand apart in the source and are kept apart here.

One experiment has as its system R15A or R15B. The experiment can be described thus: Selective binding towards R15A or R15B (based on SPR). Further details: species or system human. The protocol:
In one embodiment, the compounds of formula IB inhibit PPP1R15A and PPP1R15B. Inhibition of PPP1R15A and PPP1R15B can be determined from binding analysis. For example, binding can be analysed using SPR (surface plasmon resonance) to obtain KD values. A PPP1R15A and PPP1R15B inhibitor may be defined as a compound where the difference in KD values between R15A and R15B is no more than about 3 fold.
Small molecules were stored as 50 mM stock solutions in 100% DMSO. Prior to determining binding constants, serial dilutions of either 12 or 8 concentrations of the compounds were prepared in the running buffer in a 96-well plate. Prior to each compound dilution series the regulatory subunit, MBP-R15A^325-636-His or MBP-R15B^340-698-His, was diluted to 10 μM in the running buffer and captured on the bio-PP1c surface at a flow rate of 30 μl/min for 1 minute to form the holophosphatase complex on the sensor chip surface. This was followed by 1 minute stabilization period, to wash off any unspecific binding. Then, without regenerating the surface, the compound dilution series was injected onto the surface of the chip at a flow rate of 30 μl/min for 1 minute, followed by 2 minutes dissociation time. After each dilution series the surface was regenerated using 3 M NaCl for 90 seconds. After regeneration, SPR responses generally returned to base levels and the bio-PP1c surface was ready for the next compound dilution series. In order to be able to correct for small variations in DMSO concentration between samples, eight solvent samples ranging from 0.06 to 8% DMSO were injected every 50th cycle. The flow cell temperature was 10° C.
Sensorgrams were analyzed using the Biacore T200 evaluation software and the binding constants determined based on a steady-state model. Kinetic experiments are carried out using different concentrations of the compound and their respective equilibrium binding levels determined.

The target of a further experiment is T1, PPP1R15B-PP1 (Homo sapiens, UniProt Q5SWA1).
T1 construct: cDNAs encoding amino acids 325-636 of PPP1R15A and 340-698 of PPP1R15B were His-tagged and cloned into pMAL-c5x; made in house; host or cells: R15B: E. coli BL21-Gold (pMAL-c5x); PP1γ: Sf9 insect cells (baculovirus, pDW464)
Put plainly: SPR steady-state binding to R15B-PP1 holophosphatase. The protocol:
PPP1R15A^325-636 and PPP1R15B^340-698 were expressed and purified as follows: the cDNAs encoding amino acids 325-636 of PPP1R15A and 340-698 of PPP1R15B were His-tagged and cloned into pMAL-c5x. Recombinant PPP1R15A/B were expressed in BL21-Gold cells and purified by affinity chromatography on a HisTrap HP column (GE Healthcare), followed by a MBPTrap HP column (GE Healthcare). The proteins were analyzed on BOLT SDS-PAGE 4-12% Bis-Tris gels (Life Technologies) stained with SimplyBlue SafeStain (Life Technologies). cDNA encoding for human PP1γ was cloned into the baculovirus transfer vector pDW464 to add a biotin acceptor peptide (BAP). The vector also encodes for the E. coli biotin holoenzyme synthetase (BirA), so that BAP-tagged proteins can be biotinylated in vivo in Spodoptere frugiperda (Sf9) insect cells (Duffy et al., Anal. Biochem., 262, 122-128, 1998). The Bac-to-Bac baculovirus expression system (Life Technologies) was used to generate the recombinant bacmid DNA and Sf9 insect cells were used to amplify the viral stocks Cultures were harvested by centrifuging at 1,200 g for 15 minutes, cell pellets were resuspended in lysis buffer (50 mM Tris pH 7.4, 150 mM NaCl, 0.2% Triton, 5% Glycerol, 1 PiC tablet (Roche) per 50 ml and 0.2 mM PMSF) and followed by gentle sonication. The protein was first purified on a 5 ml HiTrap Q HP column (GE Healthcare) followed by a HiLoad 16/600 Superdex 200 column (GE Healthcare). The positive fractions confirmed by SDS-PAGE and western blot were pooled, concentrate to ˜1 μM and stored at −80° C.
A Biacore T200 (GE Healthcare) system was used for all experiments and biotinylated PP1 was captured using a Sensor Chip SA (GE Healthcare, catalog no BR-1005-31). The streptavidin coated surface was activated by 1 min injection with a solution of 50 mM NaOH and 1 M NaCl. Biotin-PP1 was diluted in the running buffer (50 mM Tris pH 7.5, 100 mM NaCl, 0.1 mM EGTA, 1 mM MnCl2, 0.05% Tween 20) and injected at approximately 300 nM concentration directly to streptavidin coated surface for 100 sec or to reach immobilization level of biotin-PP1 corresponding to ˜7000 RU. A blank immobilization was performed for one of the SA sensor chip surface to use as a reference.
With minor deviations, the same procedure and conditions were used in all binding experiments. Small molecules were stored as 50 mM stock solutions in 100% DMSO. Prior to determining binding constants, serial dilutions of either 12 or 8 concentrations of the compounds were prepared in the running buffer in a 96-well plate. Prior to each compound dilution series the regulatory subunit, R15A or R15B, was diluted to […] in the running buffer and captured on the biotin-PP1 surface, to form the holophosphatase complex on the sensor chip surface. Then, without regenerating the surface, the compound dilution series was injected onto the surface of the chip Sensorgrams were analyzed using the Biacore T200 evaluation software and the binding constants determined based on a steady-state model. Kinetic experiments are carried out using different concentrations of the compound and their respective equilibrium binding levels determined.
Surface Plasmon Resonance (SPR) was used to measure the binding affinity of compounds to the PPP1R15A/B-PP1 phosphatase complex. Biotin acceptor peptide (BAP) was fused to the N-terminus of PP1γ, which enables the biotinylation of the BAP-tagged protein in Sf9 insect cells. After purification the BAP-PP1γ protein was captured on a streptavidin sensor chip (SA-chip, GE healthcare) to a response level of ˜5.000 RU. Using controlled biotinylation enables orientated and uniform immobilization on the sensor chip surface. The PP1γ was then used to capture PPP1R15A/B and form a holophosphatase complex on the surface of the streptavidin chip. This complex can then be used to test binding of compounds. 10 μM PPP1R15A/B protein concentration was used to form the holophosphatase complex during a 80 s injection. […]

Where [1] appears, read: SPR steady-state, MBP-R15B340-698-His captured on bio-PP1c, 10° C., read-out: R15B (KD).

T1 sequence (Q5SWA1 340-698): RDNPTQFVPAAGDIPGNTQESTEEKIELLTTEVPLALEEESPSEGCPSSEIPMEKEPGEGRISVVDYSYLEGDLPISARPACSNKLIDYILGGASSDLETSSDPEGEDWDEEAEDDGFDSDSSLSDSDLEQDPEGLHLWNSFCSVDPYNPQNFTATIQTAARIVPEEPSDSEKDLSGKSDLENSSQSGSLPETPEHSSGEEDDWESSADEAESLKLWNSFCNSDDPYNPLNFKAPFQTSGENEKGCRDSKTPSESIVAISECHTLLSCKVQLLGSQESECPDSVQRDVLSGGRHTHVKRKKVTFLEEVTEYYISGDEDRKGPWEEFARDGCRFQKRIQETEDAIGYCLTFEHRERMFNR
T1 sequence (P36873 whole entry partner, the tested form may be a part): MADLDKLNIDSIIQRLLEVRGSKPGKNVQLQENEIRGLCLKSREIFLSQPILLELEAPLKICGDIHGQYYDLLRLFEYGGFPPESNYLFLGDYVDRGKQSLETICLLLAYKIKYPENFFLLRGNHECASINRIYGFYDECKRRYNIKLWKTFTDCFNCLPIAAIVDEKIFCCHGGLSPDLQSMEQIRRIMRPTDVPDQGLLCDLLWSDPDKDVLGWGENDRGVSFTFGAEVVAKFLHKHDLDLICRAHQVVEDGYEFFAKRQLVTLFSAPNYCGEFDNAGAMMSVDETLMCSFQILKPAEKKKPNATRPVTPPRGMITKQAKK

What is called Kd is the free concentration of one partner at which half of the binding sites on the other are occupied at equilibrium, for simple one-to-one binding. In the case of `[H]/N=C(\N)NN=Cc1ccc(Cl)cc1` [Compound 1, (E)-2-((4-chlorophenyl)methylene)hydrazine-1-carboximidamide], the “Selective binding towards R15A or R15B (based on SPR)” value in the experiment with R15A or R15B is “R15AB (A PPP1R15A and PPP1R15B inhibitor may be defined as a compound where the difference in KD values between R15A and R15B is no more than about 3 fold)”. For the same compound, the Kd at PPP1R15B-PP1 (setting [1]) worked out at 7.33 ± 1.79 µM.
On to `N=C(N)N/N=C/c1cc(Cl)c(Cl)c(Cl)c1` [Compound 3, (E)-2-(3,4,5-trichlorobenzylidene)hydrazine-1-carboximidamide], for which the “Selective binding towards R15A or R15B (based on SPR)” value in the experiment with R15A or R15B was “R15AB (A PPP1R15A and PPP1R15B inhibitor may be defined as a compound where the difference in KD values between R15A and R15B is no more than about 3 fold)”. Besides, the Kd at PPP1R15B-PP1 (setting [1]) was determined as 0.149 µM.
For `[H]/N=C(\N)NN=Cc1cc(Cl)c(F)c(Cl)c1` [Compound 5, (E)-2-(3,5-dichloro-4-fluorobenzylidene)hydrazine-1-carboximidamide], the “Selective binding towards R15A or R15B (based on SPR)” value in the experiment with R15A or R15B is “R15AB (A PPP1R15A and PPP1R15B inhibitor may be defined as a compound where the difference in KD values between R15A and R15B is no more than about 3 fold)”. The Kd at PPP1R15B-PP1 (setting [1]) stood at 2.67 ± 0.4 µM.
Take `[H]/N=C(\N)NN=Cc1ccc(Cl)c(Cl)c1Cl` [Compound 6, (E)-2-(2,3,4-trichlorobenzylidene)hydrazine-1-carboximidamide]: in the experiment on R15A or R15B, the “Selective binding towards R15A or R15B (based on SPR)” value was “R15AB (A PPP1R15A and PPP1R15B inhibitor may be defined as a compound where the difference in KD values between R15A and R15B is no more than about 3 fold)”. Further, at PPP1R15B-PP1 (setting [1]), the Kd was determined as 9.09 ± 1.37 µM.
Turning to `[H]/N=C(\N)NN=Cc1cc(F)c(Cl)cc1Cl` [Compound 7, (E)-2-(2,4-dichloro-5-fluorobenzylidene)hydrazine-1-carboximidamide], in the experiment with R15A or R15B, the “Selective binding towards R15A or R15B (based on SPR)” value is “R15AB (A PPP1R15A and PPP1R15B inhibitor may be defined as a compound where the difference in KD values between R15A and R15B is no more than about 3 fold)”. Further, the Kd at PPP1R15B-PP1 (setting [1]) came to 4.34 ± 2.35 µM.
Take `[H]/N=C(\N)NN=Cc1ccc(Cl)c(F)c1` [Compound 8, (E)-2-(4-chloro-3-fluorobenzylidene)hydrazine-1-carboximidamide]: the “Selective binding towards R15A or R15B (based on SPR)” value with R15A or R15B is “R15AB (A PPP1R15A and PPP1R15B inhibitor may be defined as a compound where the difference in KD values between R15A and R15B is no more than about 3 fold)”. Further, on PPP1R15B-PP1 (setting [1]), the Kd turned out to be 11.3 µM.
With `[H]/N=C(\N)NN=Cc1cccc(Cl)c1Br` [Compound 9, (E)-2-(2-bromo-3-chlorobenzylidene)hydrazine-1-carboximidamide], the “Selective binding towards R15A or R15B (based on SPR)” value in the experiment with R15A or R15B is “R15A (A “selective inhibitor” may be defined as a compound where the difference in KD values between R15A and R15B is greater than 3 fold)”. In addition, the Kd on PPP1R15B-PP1 (setting [1]) was 39.6 ± 5.9 µM.
For the compound `[H]/N=C(\N)NN=Cc1cc(Cl)cc(Cl)c1Cl` [Compound 10, (E)-2-(2,3,5-trichlorobenzylidene)hydrazine-1-carboximidamide], the “Selective binding towards R15A or R15B (based on SPR)” value in the experiment on R15A or R15B is “R15AB (A PPP1R15A and PPP1R15B inhibitor may be defined as a compound where the difference in KD values between R15A and R15B is no more than about 3 fold)”. For the same compound, the Kd at PPP1R15B-PP1 (setting [1]) worked out at 0.44 ± 0.09 µM.
`[H]/N=C(\N)NN=Cc1ccc(Cl)c(Cl)c1` [Compound 11, (E)-2-(3,4-dichlorobenzylidene)hydrazine-1-carboximidamide]: the “Selective binding towards R15A or R15B (based on SPR)” value in the experiment with R15A or R15B is “R15AB (A PPP1R15A and PPP1R15B inhibitor may be defined as a compound where the difference in KD values between R15A and R15B is no more than about 3 fold)”. For the same compound, at PPP1R15B-PP1 (setting [1]), the Kd came out at 13.4 ± 0.47 µM.
For `[H]/N=C(\N)NN=Cc1ccc(Cl)c(F)c1Cl` [Compound 13, (E)-2-(2,4-dichloro-3-fluorobenzylidene)hydrazine-1-carboximidamide], the “Selective binding towards R15A or R15B (based on SPR)” value in the experiment with R15A or R15B was “R15AB (A PPP1R15A and PPP1R15B inhibitor may be defined as a compound where the difference in KD values between R15A and R15B is no more than about 3 fold)”. At PPP1R15B-PP1 (setting [1]), the Kd worked out at 6.68 ± 2.34 µM.
As for `[H]/N=C(\N)NN=Cc1ccc(F)c(Cl)c1Cl` [Compound 14, (E)-2-(2,3-dichloro-4-fluorobenzylidene)hydrazine-1-carboximidamide], the “Selective binding towards R15A or R15B (based on SPR)” value in the experiment on R15A or R15B was “R15AB (A PPP1R15A and PPP1R15B inhibitor may be defined as a compound where the difference in KD values between R15A and R15B is no more than about 3 fold)”. Besides, at PPP1R15B-PP1 (setting [1]), the Kd came out at 5.43 ± 1.26 µM.
As for `[H]/N=C(\N)NN=Cc1ccc(F)c(Cl)c1` [Compound 15, (E)-2-(3-chloro-4-fluorobenzylidene)hydrazine-1-carboximidamide], the “Selective binding towards R15A or R15B (based on SPR)” value in the experiment on R15A or R15B was “R15AB (A PPP1R15A and PPP1R15B inhibitor may be defined as a compound where the difference in KD values between R15A and R15B is no more than about 3 fold)”. For the same compound, the Kd at PPP1R15B-PP1 (setting [1]) is 7.68 ± 2.18 µM.
For `[H]/N=C(\N)NN=Cc1cccc(Cl)c1Cl` [Compound 16, (E)-2-(2,3-dichlorobenzylidene)hydrazine-1-carboximidamide], the “Selective binding towards R15A or R15B (based on SPR)” value in the experiment on R15A or R15B was “R15B (A “selective inhibitor” may be defined as a compound where the difference in KD values between R15A and R15B is greater than 3 fold)”. Also, on PPP1R15B-PP1 (SPR, FIG. 1, read-out: KD for PPP1R15B-PP1), the Kd was found to be 0.035 µM.
Take `[H]/N=C(\N)NN=Cc1ccccc1F` [Compound 17, (E)-2-(2-fluorobenzylidene)hydrazine-1-carboximidamide]: in the experiment on R15A or R15B, the “Selective binding towards R15A or R15B (based on SPR)” value was “R15AB (A PPP1R15A and PPP1R15B inhibitor may be defined as a compound where the difference in KD values between R15A and R15B is no more than about 3 fold)”. Moreover, the Kd on PPP1R15B-PP1 (setting [1]) worked out at 18.1 ± 1.8 µM.
As to `N=C(N)N/N=C/c1cc(Cl)c(Cl)cc1F` [Compound 18, (E)-2-(4,5-dichloro-2-fluorobenzylidene)hydrazine-1-carboximidamide], the “Selective binding towards R15A or R15B (based on SPR)” value with R15A or R15B is “R15AB (A PPP1R15A and PPP1R15B inhibitor may be defined as a compound where the difference in KD values between R15A and R15B is no more than about 3 fold)”. Moreover, the Kd on PPP1R15B-PP1 (setting [1]) came out at 4.85 ± 0.14 µM.
